Measured values as given in patent US8349792B2, “Combination comprising CNDAC (2′-cyano-2′-deoxy-N4-palmitoyl-1-beta-D-arabinofuranosyl-cytosine) and a cytotoxic agent” (priority 2006, dated 2013).

Tests used:
[1] = test system: H358 cells; experiment: H358 xenograft tumour growth; format: in vivo, mice (nu/nu); details: for mean tumour volume: day 22, sapacitabine 15 mg/kg oral, irinotecan 50 mg/kg i.p. weekly, SAHA 50 mg/kg oral
Experimental: Female mice (nu/nu) were obtained from Harlan. Animals were injected subcutaneously with ˜1×10^7 H358 cells/mouse at a single site on their flanks. Tumours were allowed to grow to ˜127 mm^3 before being pair-matched by tumour size into treatment groups (10 mice/group). One group was treated with sapacitabine (15 mg/kg) once daily by oral gavage for five consecutive days followed by a two day break; the treatment was then repeated for a total of three cycles. Irinotecan (50 mg/kg) was treated once weekly by intraperitoneal injection for three weeks. […] Mice were weighed at least twice a week to assess toxicity of the treatments and the tumours were measured with calipers at least twice a week to determine tumour growth. The tumour measurements were converted into volumes using the formula: tumour volume (mm^3)=width^2 (mm)×length (mm)×0.52. The percent tumour growth inhibition was determined with the formula: 1−(Change in treated tumour volume/change in control tumour volume)×100%. Statistical significance was determined using a two sided unpaired Student's T-test.

[2] = test system: Hut78 cells; experiment: Western blotting analysis in Hut78 cells; format: cell-based; details: 1×IC50, western blot
Experimental: Protein lysates were generated from 10 cm plates that were seeded at approximately 5×10^5 cells/well, in medium containing 10% FCS. […] Cells were collected by centrifugation (5 min×2,000 g), washed once with ice-cold buffer A (50 mM HEPES, pH 7.0, 20 mM NaCl, 1 mM DTT, protease inhibitors, 10 mM Sodium pyrophosphate, 10 mM Sodium Fluoride and 1 mM Sodium Orthovanadate), and resuspended in 0.3 ml of the same buffer. Cells were lysed by sonication (2×3 s bursts with probe sonicator), and the protein concentration of each tube determined using the BCA assay. Lysates (20-30 μg protein loaded/well) were resolved on Bis-Tris gels containing 10 or 12% acrylamide and transferred to nitrocellulose for analysis by western blotting. Membranes were blocked for 1 h at room temperature in PBS containing 0.02% (v/v) Tween 20 and 5% (w/v) fat-free dried milk. Antibody incubations were carried out overnight at 2-8° C. in PBS containing 0.02% (v/v) Tween 20 (PBST) containing 3% (w/v) dried milk. Nitrocellulose membranes were probed with the following antibodies:
Membranes were then washed three times in PBST, and then incubated for 1 h with the appropriate horseradish peroxidase-conjugated secondary antibody (Perbio) at 1:5,000 dilution. Finally, the membranes were washed three times in PBST prior to development using an enhanced chemiluminescence kit (Amersham Corporation, Buckinghamshire, U.K.) or the Millipore Immobilon HRP substrate.
Cells were harvested and the resulting cell lysates analysed by western blotting with the indicated antibodies. Data are representative of two independent experiments (FIG. 5). […] Homologous recombination is one of the major repair pathways for double strand DNA breaks, and RAD51 plays a key role in homologous recombination.

[3] = test system: Hut78 cells; experiment: Flow cytometry, propidium iodide DNA content (sub-G1); format: cell-based; details: for sub-G1 cells, dose dependence: 0.5×-2×IC50, 72 h; for sub-G1 cells, time dependence: 1×IC50, 16, 24, 48 or 72 h
Experimental: (§1) Hut78 cells were seeded in 10 cm plates at approximately 5×10^5 cells/plate and left to settle for 2 h. […] After treatment, cells were harvested and cell cycle analysis was carried our. Cells were pelleted by centrifugation, washed twice in PBS and then fixed overnight in 70% (v/v) ethanol at −20° C. Cells were stained with 50 μg/ml propidium iodide for 20 min and the DNA content analysed on the flow cytometer. Annexin V staining was performed as indicated in manufacturer's instructions, on live, non-fixed cells.
After drug treatment, cells were then harvested, stained with propidium iodide and their DNA content analysed by flow cytometry.
After treatment, cells were then harvested, stained with propidium iodide and their DNA content analysed by flow cytometry.

[4] = test system: p388 mouse leukaemia; experiment: p388 mouse leukaemia xenograft, survival; format: in vivo; details: P388 mouse model; CYC682 20 mg/kg PO QD×5×2, SAHA 75 mg/kg IP QD×12; compared to vehicle control
Text: The p388 mouse leukaemia xenograft assesses drug combinations by the survival times of the mice in the various treatment arms.

[5] = test system: Hut78 cells; experiment: Flow cytometry, Annexin V staining; format: cell-based; details: IC50, 24 h, 48 h or 72 h
Experimental: as §1
Cells were then harvested, stained with annexin V and analysed on the flow cytometer. Data are representative of two independent experiments. Annexin V labels live cells that are undergoing apoptosis or already dead. […] The synergy detected in the calcusyn analysis (Table 1) is therefore likely to be mainly due to inhibition of cell proliferation.

[6] = test system: colon cancer; details: model of colon cancer, cited from earlier work
[7] = human, in vivo; cited from earlier work
[8] = test system: Hut78 cells; experiment: 72 h IC50 by Alamar blue assay in Hut78; format: cell-based; details: read-out: 1×IC50 value in Hut78 cells
Experimental: Experiments were carried out in 96-well plates and the cell lines seeded at a density of 2500/well for H1299, 2500/well or 3000/well for H460, 5000/well for HL-60 cells, and 8,000 cells/well for Hut78, MV4-11 and PL-21 cells. […] Each compound was then tested in combination with CNDAC using three different treatment regimes: concomitant, CNDAC pre-treatment followed by HDAC inhibitor/topoisomerase inhibitor and CNDAC treatment after pre-treatment with HDAC inhibitor/topoisomerase inhibitor.

SMILES | effect on tumour growth (in words) ([1]; day 22) | mean tumour volume [1] | Acetyl-histone H4 [2] | sub-G1 cells, dose dependence [3] | sub-G1 cells, time dependence [3] | survival [4] | apoptotic/dead cells (annexin V) [5] | tumour growth inhibition (% TGI) ([1]; day 22) | anticancer activity [6] | increasing survival and preventing the spread of colon cancer metastases to the liver ([6]; versus gemcitabine or 5-FU) | tolerability, dose limiting toxicity [7] | IC50 [8] | H2A.X phosphorylation at serine 139 [2] | Mcl-1 [2] | sub-G1 cells, share of the cell population ([3]; 1×IC50, by 72 h)
O=C(CCCCCCC(=O)Nc1ccccc1)NO [SAHA, suberoylanilide hydramic acid, reference compound] | no effect on tumour growth | 517 mm^3 | increase in Acetyl-histone H4 | little effect on the cell cycle, except at 2×IC50, where it induced a small increase in sub-G1 cells | small increase in sub-G1 cells | very little effect on survival | negligible increase in dead/dying cells |  |  |  |  |  |  |  | 
CCc1c2c(nc3ccc(OC(=O)N4CCC(N5CCCCC5)CC4)cc13)-c1cc3c(c(=O)n1C2)COC(=O)[C@]3(O)CC [irinotecan] |  |  |  |  |  |  |  | ~75% |  |  |  |  |  |  | 
CCCCCCCCCCCCCCCC(=O)Nc1ccn([C@@H]2O[C@H](CO)[C@@H](O)[C@@H]2C#N)c(=O)n1 [sapacitabine, 2′-cyano-2′-deoxy-N^4-palmitoyl-1-β-D-arabinofuranosylcytosine] |  | 229 mm^3 |  |  |  | significant increase in the survival time |  | ~75% | strong anticancer activity | superior to either gemcitabine or 5-FU | well tolerated in humans, with myelosuppression as the dose limiting toxicity |  |  |  | 
N#C[C@H]1[C@H](O)[C@@H](CO)O[C@H]1n1ccc(N)nc1=O [CNDAC, 1-(2-C-cyano-2-deoxy-β-D-arabino-pentafuranosyl)-cytosine] |  |  |  | dose-dependent increase in sub-G1 cells | time-dependent increase in sub-G1 cells that became apparent by 48 h treatment |  | time-dependent increase in apoptotic/dead cells |  |  |  |  | 0.36 µM | increase in H2A.X phosphorylation at serine 139 | decrease in Mcl-1 | ~30%
